Experimental data reported in US9782483B2, “Sigma ligands for the prevention and/or treatment of emesis induced by chemotherapy or radiotherapy” (Laboratories Del Dr. Esteve, S.A., priority 2010, dated 2017).

Tests used:
[1] = system: ferret (Mustela putorius furo); experiment: Antiemetic properties against cisplatin-induced emesis in the conscious, unrestrained ferret (telemetry); format: in vivo; details: cisplatin 5 mg/kg i.p., 80 mg/kg i.p., multiple dose regimen (9 treatments)
Procedure: The antiemetic properties of compound 63 were assessed in combination with intraperitoneal administration of the chemotherapeutic agent cisplatin in the conscious, unrestrained ferret (Mustela putorius furo).
At least 12 days before their first treatment, ferrets were surgically implanted with telemetry devices. Individual body weights were recorded before treatment, at the time of telemetry device implantation, one day before the initiation of treatment and after completion of the treatment session, at the time of euthanasia, for each animal respectively.
The animals were treated according to the following schedule: […]
Body temperature, abdominal pressure and activity of the abdominal muscle (EMG) were recorded in treated animals, on day 0 and day 7, respectively, starting approximately 1 hour before the first administration of the vehicle and the test item and for at least 72 hours following the first administration of the vehicle and the test item. […]
2.7 Administration of Emetogenic Item • Route: Intraperitoneal. • Method of administration: Bolus injection using a sterile syringe and needle introduced intraperitoneally into the pelvic area. • Frequency: One administration for each animal, on day 0 or 7, one hour after the first treatment with the test item • Volume of administration: 5 mL/kg. • Individual dose volumes were calculated using the latest recorded body weight. […]

[2] = during Patient-Controlled Analgesia Therapy; Tramèr et al. 1999; cited from earlier work

Compound: Cc1cc(OCCN2CCOCC2)nn1-c1ccc2ccccc2c1 [Compound 63, 4-{2-[5-Methyl-1-(naphthalen-2-yl)-1H-pyrazol-3-yloxy]ethyl}morpholine]
- number of emetic events during the delayed phase ([1]; delayed phase 18 to 72 hours, vs vehicle): markedly decreased
- maximum total number of emetic events (EE) ([1]; delayed phase, between 62 and 63 hours): 39 EE

Compound: Cc1nccn1CC1CCc2c(c3ccccc3n2C)C1=O (stereo not shown) [ondasetron]
- antinausea effect [2]: no evidence of any antinausea effect

Compound: CN1[C@@H]2CC[C@H]1C[C@@H](OC(=O)c1c[nH]c3ccccc13)C2 [tropisetron]
- antinausea effect [2]: no evidence of any antinausea effect
